Structures are written as SMILES.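 In this assay, cells in 96-well plates receive the compound at five concentrations for 48 hours. Endpoints are linearly interpolated between the surrounding concentrations. Definition used: TGI = concentration required for complete inhibition of growth.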 A value given as a limit tells only on which side of the number the result lay.

What all share (test): NCI anticancer screen, dose series, 48 h
In test [1] the test system is SF-268 CNS.
For test [2], the system named is HCT-116 colon.
Test [3] relates to A549 NSCLC.
Test [4] deals with OVCAR-3 ovarian.
For test [5], the system named is RXF 393 renal.
Test [6] deals with UACC-62 melanoma.
Test [7] relates to SK-OV-3 ovarian.
In test [8] the test system is SK-MEL-28 melanoma.
Test [9] has as its system 786-0 renal.
Test [10] has as its system HOP-62 NSCLC.
Test [11] deals with DMS 114 small cell lung.
Test [12] has as its system OVCAR-5 ovarian.
Test [13] concerns HCT-15 colon.
Test [14] has as its system K-562 leukemia.
The subject of test [15] is MALME-3M melanoma.
For test [16], the system named is HCC-2998 colon.
The subject of test [17] is OVCAR-8 ovarian.
Test [18] relates to SF-295 CNS.
The test system of test [19] is NCI-H23 lung.

For the compound `CCOC(=O)C1=C(O)C(=O)c2ccoc2C1=O`, the TGI in test [1], in test [2], in test [3], in [4], in test [5] and in [6] was more than 100 µM each time. Besides, the TGI in [7], in test [8], in [9], in test [10], in [11] and in test [12] was more than 100 µM throughout. In addition, the TGI in [13], in test [14], in [15], in [16], in test [17] and in test [18] was more than 100 µM in each case. For the same compound, the TGI in [19] is more than 100 µM.

On to `CCCCCCCCCCCCCCCCCCOCC(C[N+]1(C)CCC(O)CC1)OCC` (configuration not stated), for which the TGI in [1] amounted to 15 µM; in test [2], 27.6 µM; in [3], 32.9 µM; in test [4], 15.4 µM; in test [6], 19.7 µM; in test [7], 8.22 µM. Besides, the TGI in [8] amounted to 33.5 µM; in test [9], 19.4 µM; in test [10], 16.7 µM; in test [11] it was 12.6 µM; in test [14], 19.1 µM; in test [15], 28.8 µM. Further, the TGI was found to be 31.7 µM in test [16], 41.4 µM in test [17], 17.9 µM in [18] and 16 µM in [19].

For `O=C1C[C@@H]2[C@@H](c3ccccc3)[C@@H]3C(=O)c4ccccc4NC(=O)[C@H]3[C@]2(O)c2ccccc2N1`, the TGI in test [1], in test [2], in test [3], in [4], in [5] and in test [6] was more than 100 µM in each case. Moreover, the TGI in test [8], in test [9], in test [10], in [11], in test [12] and in test [13] was more than 100 µM in each case. Also, the TGI in test [14], in test [15], in test [17], in test [18] and in test [19] was more than 100 µM each time.

The record behind these values is PubChem BioAssay (NCI).
